Among the data in PubChem BioAssay AID248 (DTP/NCI, 2004) are T/C values, retold here.

The assay relates to L1210 leukemia ip in BDF1 mice, survival T/C. Briefly: NCI In Vivo Anticancer Drug Screen. Data for tumor model L1210 Leukemia (intraperitoneal) in B6D2F1 (BDF1) mice. The note with it: endpoint: mean survival time, higher = longer survival. In outline: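 Antitumor effect is assessed in tumor-bearing animals. Survival in the compound arm is compared with a vehicle-dosed control arm and expressed as their quotient.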

Where [1] appears, read: dose: 100.0 mg/kg/injection, schedule: Q04DX002 (ip), vehicle: Klucel (hydroxypropylcellulose) (HPC).
Setting [2] is: dose: 200.0 mg/kg/injection, schedule: Q04DX002 (ip), vehicle: Klucel (hydroxypropylcellulose) (HPC).
The mark [3] stands for this setting: dose: 400.0 mg/kg/injection, schedule: Q04DX002 (ip), vehicle: Klucel (hydroxypropylcellulose) (HPC).

Inconclusive results and toxic doses are left out.

For `C1CN1P1(N2CC2)=NP(N2CC2)(N2CC2)=NP(N2CC2)(N2CC2)=N1`, the T/C (dose: 10.0 mg/kg/injection, schedule: Q01DX009 (ip), vehicle: saline) was 159 % of control; the T/C (dose: 20.0 mg/kg/injection, schedule: Q01DX009 (ip), vehicle: saline) was 104 % of control; the T/C (dose: 75.0 mg/kg/injection, schedule: Q01DX001 (ip), vehicle: saline) is 162 % of control.

With `CC(=O)Nc1ccc(OC(=O)Nc2cc(C)ccc2C)cc1`, the T/C was 109 % of control (dose: 25.0 mg/kg/injection, schedule: Q01DX009 (ip), vehicle: Klucel (hydroxypropylcellulose) (HPC)); 88 % of control (dose: 50.0 mg/kg/injection, schedule: Q01DX009 (ip), vehicle: Klucel (hydroxypropylcellulose) (HPC)); 94 % of control (dose: 100.0 mg/kg/injection, schedule: Q01DX009 (ip), vehicle: Klucel (hydroxypropylcellulose) (HPC)); 102 % of control under setting [1]; 95 % of control (dose: 100.0 mg/kg/injection, schedule: Q04DX003 (ip), vehicle: Klucel (hydroxypropylcellulose) (HPC)); 89 % of control (dose: 200.0 mg/kg/injection, schedule: Q01DX009 (ip), vehicle: Klucel (hydroxypropylcellulose) (HPC)). The T/C was 97 % of control under setting [2]; 97 % of control (dose: 200.0 mg/kg/injection, schedule: Q04DX003 (ip), vehicle: Klucel (hydroxypropylcellulose) (HPC)); 100 % of control under setting [3]; 93 % of control (dose: 400.0 mg/kg/injection, schedule: Q04DX003 (ip), vehicle: Klucel (hydroxypropylcellulose) (HPC)).

Consider `O=c1cc(/C=N/Nc2ccc([N+](=O)[O-])cc2[N+](=O)[O-])c2cccc3c2n1CCC3`, for which the T/C was 93 % of control (dose: 100.0 mg/kg/injection, schedule: Q01DX009 (ip), vehicle: saline with Tween-80); 98 % of control (dose: 100.0 mg/kg/injection, schedule: Q04DX003 (ip), vehicle: saline with Tween-80); 101 % of control (dose: 200.0 mg/kg/injection, schedule: Q04DX003 (ip), vehicle: saline with Tween-80); 93 % of control (dose: 400.0 mg/kg/injection, schedule: Q01DX009 (ip), vehicle: saline with Tween-80); 102 % of control (dose: 400.0 mg/kg/injection, schedule: Q04DX003 (ip), vehicle: saline with Tween-80).

For the compound `CCCCOC(=O)Nc1ccccc1OCC`, the T/C was 109 % of control under setting [1], 106 % of control under setting [2] and 98 % of control under setting [3].

Turning to `CC1=CC(=O)C=C(C(C)C)/C1=C(\c1ccccc1C(=O)O)c1c(C)cc(OP(=O)(O)O)cc1C(C)C`, the T/C (dose: 100.0 mg/kg/injection, schedule: Q01DX009 (ip), vehicle: saline) was 103 % of control; the T/C (dose: 100.0 mg/kg/injection, schedule: Q04DX003 (ip), vehicle: saline) is 106 % of control; the T/C (dose: 200.0 mg/kg/injection, schedule: Q01DX009 (ip), vehicle: saline) was 102 % of control; the T/C (dose: 200.0 mg/kg/injection, schedule: Q04DX003 (ip), vehicle: saline) is 97 % of control; the T/C (dose: 400.0 mg/kg/injection, schedule: Q01DX009 (ip), vehicle: saline) was 100 % of control; the T/C (dose: 400.0 mg/kg/injection, schedule: Q04DX003 (ip), vehicle: saline) was 98 % of control.

On to `Clc1ccccc1OB(Oc1ccccc1Cl)Oc1ccccc1Cl`, for which the T/C by setting is: (dose: 100.0 mg/kg/injection, schedule: Q01DX001 (ip), vehicle: saline) 101 % of control; (dose: 200.0 mg/kg/injection, schedule: Q01DX001 (ip), vehicle: saline) 95 % of control.
